{"source": "patent US8703825B2", "about": "“Compounds, use thereof as medicaments, and method of preparation thereof” (Universite de Lorraine, priority 2008, dated 2014)", "assay_type_in_all_cases": "cell-based", "key": {"[1]": {"system": "Enterococcus faecalis ATCC 29212", "assay": "MIC by microdilution in liquid medium (CLSI / CA-SFM)", "from_the_text": "(§1) According to the joint recommendations: • of the “Comite de l′Antibiogramme de la Société Française de Microbiologie” (Antibiogram Committee of the French Society of Microbiology) (CA-SFM) [CA-SFM. Communique 2007 (Edition of January 2007). http://www.sfm.asso.fr] and, • of the “Clinical and Laboratory Standards Institute” (CLSI, formerly “National Committee for Clinical Laboratory Standards” or NCCLS) [NCCLS. 2003. Methods for dilution antimicrobial susceptibility tests for bacteria that grow aerobically; approved standard M7-A6, 6th ed. National Committee for Clinical Laboratory Standards, Wayne, Pa., USA.], five reference bacterial strains were used for the study: Escherichia coli ATCC 25922, Pseudomonas aeruginosa ATCC 27853, Staphylococcus aureus ATCC 25923 & ATCC 29213 and Enterococcus faecalis ATCC 29212.\n(§2) The bacteria are cultivated either on Mueller-Hinton agar (Difco, 225250), or in Mueller-Hinton broth (Difco, 275730), at 35° C. [Grare M, Mourer M, Fontanay S, Regnouf-de-Vains J B, Finance C, Duval R E. In vitro activity of para-guanidinoethylcalix[4]arene against susceptible and antibiotic-resistant Gram-negative and Gram-positive bacteria. J. Antimicrob Chemother. 2007; 60: 575-81].\n(§3) The various molecules tested were prepared in the form of aqueous solution at 10^−2 mol/L. The solutions used for the biological tests are freshly prepared, and stored for a week at most, at 4° C. The solutions are filtered through a filter with pores of 0.22 μm (Millex®GP; 0.22 μm; Millipore; France) before each test.\n(§4) Procedure for determining the Minimum Inhibitory Concentration (MIC)\n(§5) The minimum inhibitory concentrations (MIC) were determined by the standardized method of microdilution in liquid medium (96-well microplate, U-shaped bottom, Greiner), in Mueller-Hinton broth, with a final inoculum of 10^5-10^6 CFU/mL, depending on the bacterial species, in accordance with the recommendations of the CLSI.\n(§6) For the determination of MIC, bacterial suspensions are prepared from an isolated colony, taken from a Mueller-Hinton agar, taken up in 5 mL of Mueller-Hinton broth. After 24 h of growth, the bacterial suspensions are diluted in sterile distilled water in order to obtain an inoculum of 10^5-10^6 CFU/mL. The purity of the bacterial suspensions is tested by isolation on agar and Gram staining.\n(§7) The results are the mean value of 4 independent experiments."}, "[2]": {"system": "Escherichia coli ATCC 25922", "assay": "MIC by microdilution in liquid medium (CLSI / CA-SFM)", "details": "Escherichia coli", "from_the_text": "as §1, §2, §3, §4, §5, §6, §7"}, "[3]": {"system": "Pseudomonas aeruginosa ATCC 27853", "assay": "MIC by microdilution in liquid medium (CLSI / CA-SFM)", "from_the_text": "as §1, §2, §3, §4, §5, §6, §7"}, "[4]": {"system": "Staphylococcus aureus ATCC 25923", "assay": "MIC by microdilution in liquid medium (CLSI / CA-SFM)", "details": "Staphylococcus aureus", "from_the_text": "as §1, §2, §3, §4, §5, §6, §7"}, "[5]": {"system": "Staphylococcus aureus ATCC 29213", "assay": "MIC by microdilution in liquid medium (CLSI / CA-SFM)", "details": "for Selectivity index (SI=IC50/MIC): S. aureus ATCC 29213, HaCaT cell lines, 24 h exposure; for MIC: Staphylococcus aureus", "from_the_text": "as §1, §2, §3, §4, §5, §6, §7"}, "[6]": {"system": "penicillinase-producing E. coli (EcR1)", "assay": "MIC by microdilution, clinical isolate", "details": "Escherichia coli", "method": "(§8) The study also included 5 clinical isolates, obtained from rectal samples and/or from haemoculture: • […] E. coli (EcR1), • methicillin-resistant S. aureus (mecA gene) (SaR1), • vancomycin-resistant E. faecium (vanB gene) (EfR1), • E. faecalis resistant to teicoplanin and to vancomycin (vanA gene) (EfR2), and • P. aeruginosa overexpressing an efflux pump (PaRl).\n(§9) The isolates were selected on the basis of their resistance profile. The resistance profiles were determined on VITEK2 (BioMérieux, France).\nas §2, §3, §4, §5, §6, §7"}, "[7]": {"system": "vancomycin-resistant E. faecium (vanB gene) (EfR1)", "assay": "MIC by microdilution, clinical isolate", "details": "Enterococcus faecium", "method": "as §8, §9, §2, §3, §4, §5, §6, §7"}, "[8]": {"system": "Escherichia coli ATCC 25922", "assay": "MIC by microdilution in liquid medium (CLSI / CA-SFM)", "details": "E. coli ATCC 25922; HaCaT cell lines, 24 h exposure"}, "[9]": {"system": "Staphylococcus aureus ATCC 25923", "assay": "MIC by microdilution in liquid medium (CLSI / CA-SFM)", "details": "S. aureus ATCC 25923; HaCaT cell lines, 24 h exposure"}, "[10]": {"system": "Enterococcus faecalis ATCC 29212", "assay": "MIC by microdilution in liquid medium (CLSI / CA-SFM)", "details": "E. faecalis ATCC 29212; HaCaT cell lines, 24 h exposure"}, "[11]": {"system": "Pseudomonas aeruginosa ATCC 27853", "assay": "MIC by microdilution in liquid medium (CLSI / CA-SFM)", "details": "P. aeruginosa ATCC 27853; HaCaT cell lines, 24 h exposure"}, "[12]": {"details": "ATCC29212, E. faecalis ATCC 29212, reference strain, read-out: MIC"}, "[13]": {"details": "ATCC25922, E. coli ATCC 25922, reference strain, read-out: MIC"}, "[14]": {"details": "ATCC27853, P. aeruginosa ATCC 27853, reference strain, read-out: MIC"}, "[15]": {"details": "ATCC25923, S. aureus ATCC 25923, reference strain, read-out: MIC"}, "[16]": {"details": "ATCC29213, S. aureus ATCC 29213, reference strain, read-out: MIC"}, "[17]": {"details": "clinical isolate, penicillinase-producing E. coli, read-out: MIC"}, "[18]": {"details": "clinical isolate, E. faecium (vanB gene), read-out: MIC"}}, "note": "Read-outs that look alike come from different tables or passages of the source.", "data": [{"compound": "[H]/N=C(\\N/C(=N/[H])NCCCCCCNC(=N)NC(=N)Nc1ccc(Cl)cc1)Nc1ccc(Cl)cc1", "note": "[CHX, chlorhexidine]", "values": [{"measurement": "MIC", "setting": "[1]; [12]", "result": 2, "unit": "µg/mL"}, {"measurement": "MIC", "setting": "[2]; [13]", "result": 0.25, "unit": "µg/mL"}, {"measurement": "MIC", "setting": "[3]; [14]", "result": 8, "unit": "µg/mL"}, {"measurement": "MIC", "setting": "[4]; [15]", "result": 0.5, "unit": "µg/mL"}, {"measurement": "Selectivity index (SI=IC50/MIC)", "setting": "[5]", "result": "32-64"}, {"measurement": "MIC", "setting": "[5]; [16]", "result": 0.5, "unit": "µg/mL"}, {"measurement": "MIC", "setting": "[6]; [17]", "result": 0.5, "unit": "µg/mL"}, {"measurement": "MIC", "setting": "[7]; [18]", "result": 1, "unit": "µg/mL"}, {"measurement": "Selectivity index (SI=IC50/MIC)", "setting": "[8]", "result": "64-128"}, {"measurement": "Selectivity index (SI=IC50/MIC)", "setting": "[9]", "result": "32-64"}, {"measurement": "Selectivity index (SI=IC50/MIC)", "setting": "[10]", "result": "8-16"}, {"measurement": "Selectivity index (SI=IC50/MIC)", "setting": "[11]", "result": "2-4"}]}, {"compound": "N=C(N)c1ccc(OCCCCCCOc2ccc(C(=N)N)cc2)cc1", "note": "[HX, hexamidine]", "values": [{"measurement": "MIC", "setting": "[1]; ATCC29212", "result": 2, "unit": "µg/mL"}, {"measurement": "MIC", "setting": "[2]; ATCC25922", "result": 8, "unit": "µg/mL"}, {"measurement": "MIC", "setting": "[3]; ATCC27853", "result": 32, "unit": "µg/mL"}, {"measurement": "MIC", "setting": "[4]; ATCC25923", "result": 4, "unit": "µg/mL"}, {"measurement": "Selectivity index (SI=IC50/MIC)", "setting": "[5]", "result": "≧32"}, {"measurement": "MIC", "setting": "[5]; ATCC29213", "result": "< 1", "unit": "µg/mL"}, {"measurement": "MIC", "setting": "[6]", "result": 8, "unit": "µg/mL"}, {"measurement": "MIC", "setting": "[7]", "result": 2, "unit": "µg/mL"}, {"measurement": "Selectivity index (SI=IC50/MIC)", "setting": "[8]", "result": "4-8"}, {"measurement": "Selectivity index (SI=IC50/MIC)", "setting": "[9]", "result": "8-16"}, {"measurement": "Selectivity index (SI=IC50/MIC)", "setting": "[10]", "result": "16-32"}, {"measurement": "Selectivity index (SI=IC50/MIC)", "setting": "[11]", "result": "1-2"}]}, {"compound": "N=C(N)NCCc1ccc(OCCCCCCOc2ccc(CCNC(=N)N)cc2)cc1", "note": "[compound 6, 1,6-bis(4-(2-guanidinoethyl)phenoxy)hexane]", "values": [{"measurement": "MIC", "setting": "[1]; [12]", "result": 8, "unit": "µg/mL"}, {"measurement": "MIC", "setting": "[2]; [13]", "result": 4, "unit": "µg/mL"}, {"measurement": "MIC", "setting": "[3]; [14]", "result": 16, "unit": "µg/mL"}, {"measurement": "MIC", "setting": "[4]; [15]", "result": 0.5, "unit": "µg/mL"}, {"measurement": "Selectivity index (SI=IC50/MIC)", "setting": "[5]", "result": "16-32"}, {"measurement": "MIC", "setting": "[5]; [16]", "result": 0.25, "unit": "µg/mL"}, {"measurement": "MIC", "setting": "[6]; [17]", "result": 4, "unit": "µg/mL"}, {"measurement": "MIC", "setting": "[7]; [18]", "result": 8, "unit": "µg/mL"}, {"measurement": "Selectivity index (SI=IC50/MIC)", "setting": "[8]", "result": "1-2"}, {"measurement": "Selectivity index (SI=IC50/MIC)", "setting": "[9]", "result": "8-16"}, {"measurement": "Selectivity index (SI=IC50/MIC)", "setting": "[10]", "result": "0.5-1^"}, {"measurement": "Selectivity index (SI=IC50/MIC)", "setting": "[11]", "result": "0.25-0.5"}]}]}
